Earlier results, collected in patent US9981985B2, “Pharmaceutical formulations containing 3-(4-cinnamyl-l-piperazinyl) amino derivatives of 3-formylrifamycin SV and 3-formylrifamycin S and a process of their preparation” (Adipharm EAD, priority 2012, dated 2018).

Tests used:
[1] = in vivo
[2] = in vivo tests, in comparison to rifampicin; from U.S. Pat. No. 5,095,108
[3] = in vivo; remark: listed apart in the source
[4] = from U.S. Pat. No. 5,095,108

Compound	pharmacokinetic properties [1]	resorption [1]	therapeutic effect [2]	serum half-life [3]	acute toxicity [4]
sodium salt of 3-(4-cinnamyl-1-piperazinyl)-iminomethyl rifamycin SV [Compound Ib]	better	faster	–	–	–
CO[C@H]1/C=C/O[C@@]2(C)Oc3c(C)c(O)c4c(O)c(c(/C=N/N5CCN(C/C=C/c6ccccc6)CC5)c(O)c4c3C2=O)NC(=O)/C(C)=C\C=C\[C@H](C)[C@H](O)[C@@H](C)[C@@H](O)[C@@H](C)[C@H](OC(C)=O)[C@@H]1C [Ia, 3-(4-cinnamyl-1-piperazinyl)-iminomethyl rifamycin SV]	–	–	higher therapeutic effect in comparison to rifampicin	considerably longer	low
